Measured values taken from PubChem BioAssay AID330 (DTP/NCI, 2004).
“And” between values parts separate entries of the source, which are not always exact repeats. Equal values may be shown once. Toxic doses and inconclusive results are not listed.

Tested on: P388 leukemia ip, CD2F1 mice, survival T/C
Assay: NCI In Vivo Anticancer Drug Screen. Data for tumor model P388 Leukemia (intraperitoneal) in CD2F1 (CDF1) mice
Conditions: endpoint: median survival time, higher = longer survival
How it was run: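 Mice carrying the transplanted tumor received test compound or vehicle. Survival was recorded in each group, and the value is the treated-group measurement divided by that of the vehicle-treated control group.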

[1] = dose: 50.0 mg/kg/injection, schedule: Q01DX009 (ip), vehicle: saline with Tween-80
[2] = dose: 100.0 mg/kg/injection, schedule: Q01DX009 (ip), vehicle: saline with Tween-80
[3] = dose: 200.0 mg/kg/injection, schedule: Q01DX009 (ip), vehicle: saline with Tween-80
[4] = dose: 12.5 mg/kg/injection, schedule: Q01DX009 (ip), vehicle: other
[5] = dose: 25.0 mg/kg/injection, schedule: Q01DX009 (ip), vehicle: other
[6] = dose: 50.0 mg/kg/injection, schedule: Q01DX009 (ip), vehicle: other
[7] = dose: 100.0 mg/kg/injection, schedule: Q01DX009 (ip), vehicle: other
[8] = dose: 100.0 mg/kg/injection, schedule: Q01DX009 (ip), vehicle: Klucel (hydroxypropylcellulose) (HPC)
[9] = dose: 100.0 mg/kg/injection, schedule: Q01DX001 (ip), vehicle: Klucel (hydroxypropylcellulose) (HPC)
[10] = dose: 200.0 mg/kg/injection, schedule: Q01DX001 (ip), vehicle: Klucel (hydroxypropylcellulose) (HPC)
[11] = dose: 400.0 mg/kg/injection, schedule: Q01DX001 (ip), vehicle: Klucel (hydroxypropylcellulose) (HPC)

O=C1C=CC(=Nc2ccc3c(c2)C(Br)c2ccccc2-3)O1 (centres undefined)
T/C (dose: 4.0 mg/kg/injection, schedule: Q01DX009 (ip), vehicle: saline with Tween-80): 113 % of control | T/C (dose: 6.0 mg/kg/injection, schedule: Q01DX009 (ip), vehicle: saline with Tween-80): 104 % of control | T/C (dose: 6.25 mg/kg/injection, schedule: Q04DX003 (ip), vehicle: saline with Tween-80): 113 % of control | T/C (dose: 9.0 mg/kg/injection, schedule: Q01DX009 (ip), vehicle: saline with Tween-80): 90 % of control | T/C (dose: 12.5 mg/kg/injection, schedule: Q01DX009 (ip), vehicle: saline with Tween-80): 113 % of control | T/C (dose: 12.5 mg/kg/injection, schedule: Q04DX003 (ip), vehicle: saline with Tween-80): 100 % of control | T/C (dose: 25.0 mg/kg/injection, schedule: Q04DX003 (ip), vehicle: saline with Tween-80): 113 % of control

CC12OC3(C)c4ccccc4OP3(c3ccccc3)(Oc3ccccc31)O2 (centres undefined)
T/C [1]: 99 % of control | T/C [2]: 97 % of control | T/C [3]: 88 % of control

Nc1nc(N)c2[nH]cnc2n1
T/C (dose: 6.25 mg/kg/injection, schedule: Q01DX009 (ip), vehicle: other): 111 % of control | T/C [4]: 100 % of control | T/C [5]: 104 % of control | T/C [6]: 95 % of control | T/C [1]: 90 % of control | T/C (dose: 50.0 mg/kg/injection, schedule: Q04DX003 (ip), vehicle: saline with Tween-80): 108 % of control | T/C [7]: 106 % of control | T/C [2]: 90 % of control | T/C (dose: 100.0 mg/kg/injection, schedule: Q04DX003 (ip), vehicle: saline with Tween-80): 108 % of control | T/C [3]: 100 % of control | T/C (dose: 200.0 mg/kg/injection, schedule: Q04DX003 (ip), vehicle: saline with Tween-80): 108 % of control | T/C (dose: 400.0 mg/kg/injection, schedule: Q01DX009 (ip), vehicle: saline with Tween-80): 90 % of control | T/C (dose: 400.0 mg/kg/injection, schedule: Q04DX003 (ip), vehicle: saline with Tween-80): 91 % of control

CCC1=C[C@@H]2C[C@](C(=O)OC)(c3cc4c(cc3OC)N(C)[C@H]3[C@@](O)(C(=O)NC)[C@H](OC(C)=O)[C@]5(CC)C=CCN6CC[C@]43[C@@H]65)c3[nH]c4ccccc4c3CCN(C1)[C@@H]2O
T/C (dose: 0.39 mg/kg/injection, schedule: Q01DX001 (ip), vehicle: water): 123 % of control | T/C (dose: 1.56 mg/kg/injection, schedule: Q01DX001 (ip), vehicle: water): 151 % of control | T/C (dose: 3.13 mg/kg/injection, schedule: Q01DX001 (ip), vehicle: water): 152 % of control and 158 % of control

COc1ccc2cc3c(nc2c1N)C(=O)C(N1CC1)=C(N1CC1)C3=O
T/C (dose: 25.0 mg/kg/injection, schedule: Q01DX005 (ip), vehicle: Klucel (hydroxypropylcellulose) (HPC)): 98 % of control | T/C (dose: 50.0 mg/kg/injection, schedule: Q01DX005 (ip), vehicle: Klucel (hydroxypropylcellulose) (HPC)): 99 % of control | T/C (dose: 100.0 mg/kg/injection, schedule: Q01DX005 (ip), vehicle: Klucel (hydroxypropylcellulose) (HPC)): 100 % of control | T/C (dose: 200.0 mg/kg/injection, schedule: Q01DX005 (ip), vehicle: Klucel (hydroxypropylcellulose) (HPC)): 100 % of control

CN(C)P(c1ccccc1)N(C)C
T/C (dose: 50.0 mg/kg/injection, schedule: Q01DX009 (ip), vehicle: Klucel (hydroxypropylcellulose) (HPC)): 106 % of control | T/C [8]: 102 % of control | T/C (dose: 200.0 mg/kg/injection, schedule: Q01DX009 (ip), vehicle: Klucel (hydroxypropylcellulose) (HPC)): 107 % of control

CCN(CC)CCNc1ccc(C)c2sc3c(OC)cccc3c(=O)c12
T/C [1]: 113 % of control | T/C [2]: 100 % of control | T/C [3]: 116 % of control

CC1(C)CC(N=[N+]=[N-])CC(C)(C)N1O
T/C (dose: 100.0 mg/kg/injection, schedule: Q04DX003 (ip), vehicle: Klucel (hydroxypropylcellulose) (HPC)): 100 % of control

O=[N+]([O-])c1nc(Br)n[nH]1
T/C (dose: 100.0 mg/kg/injection, schedule: Q04DX002 (ip), vehicle: water): 107 % of control | T/C (dose: 200.0 mg/kg/injection, schedule: Q04DX002 (ip), vehicle: water): 106 % of control

CC(C)CC(C)C1CCC(C)C1CCC(C)OC=O (centres undefined)
T/C (dose: 50.0 mg/kg/injection, schedule: Q01DX005 (ip), vehicle: saline with Tween-80): 102 % of control | T/C (dose: 100.0 mg/kg/injection, schedule: Q01DX005 (ip), vehicle: saline with Tween-80): 114 % of control | T/C (dose: 200.0 mg/kg/injection, schedule: Q01DX005 (ip), vehicle: saline with Tween-80): 98 % of control

N[C@@H](C(=O)O)[C@@H]1C=CCCC1
T/C (dose: 100.0 mg/kg/injection, schedule: Q04DX002 (ip), vehicle: saline): 101 % of control | T/C (dose: 200.0 mg/kg/injection, schedule: Q04DX002 (ip), vehicle: saline): 94 % of control

CC1(OC(=O)c2ccc(F)cc2)CC(C)(C)[N+]([O-])=N1 (centres undefined)
T/C [4]: 113 % of control | T/C [5]: 101 % of control | T/C [6]: 118 % of control | T/C [7]: 118 % of control | T/C (dose: 200.0 mg/kg/injection, schedule: Q01DX009 (ip), vehicle: other): 123 % of control

O=C1CCC(N(CC#CCN(C2=NC(=O)CC2)c2ccccc2)c2ccccc2)=N1
T/C (dose: 60.0 mg/kg/injection, schedule: Q01DX005 (ip), vehicle: Klucel (hydroxypropylcellulose) (HPC)): 103 % of control | T/C (dose: 120.0 mg/kg/injection, schedule: Q01DX005 (ip), vehicle: Klucel (hydroxypropylcellulose) (HPC)): 100 % of control | T/C (dose: 240.0 mg/kg/injection, schedule: Q01DX005 (ip), vehicle: Klucel (hydroxypropylcellulose) (HPC)): 97 % of control

COc1ccc(C(C)(O)C2CC2)cc1 (centres undefined)
T/C [9]: 107 % of control | T/C [10]: 103 % of control | T/C [11]: 103 % of control

CC1=C(CN(CC(=O)O)CC(=O)O)C(=O)C(C(C)C)=C/C1=C(\c1ccccc1S(=O)(=O)O)c1cc(C(C)C)c(O)c(CN(CC(=O)O)CC(=O)O)c1C
T/C (dose: 50.0 mg/kg/injection, schedule: Q01DX009 (ip), vehicle: saline): 108 % of control | T/C (dose: 100.0 mg/kg/injection, schedule: Q01DX009 (ip), vehicle: saline): 104 % of control | T/C (dose: 200.0 mg/kg/injection, schedule: Q01DX009 (ip), vehicle: saline): 103 % of control

CN(c1ccccc1)C1C2=C(OC(=O)C1(Cl)Cl)c1sc(-c3ccccc3)nc1CC2 (centres undefined)
T/C (dose: 12.5 mg/kg/injection, schedule: Q04DX002 (ip), vehicle: saline with Tween-80): 93 % of control | T/C (dose: 25.0 mg/kg/injection, schedule: Q04DX002 (ip), vehicle: saline with Tween-80): 97 % of control | T/C (dose: 50.0 mg/kg/injection, schedule: Q04DX002 (ip), vehicle: saline with Tween-80): 93 % of control | T/C (dose: 200.0 mg/kg/injection, schedule: Q04DX002 (ip), vehicle: saline with Tween-80): 86 % of control

O=[N+]([O-])c1cnc(Oc2ccccc2[N+](=O)[O-])nc1
T/C (dose: 6.25 mg/kg/injection, schedule: Q01DX009 (ip), vehicle: Klucel (hydroxypropylcellulose) (HPC)): 107 % of control | T/C (dose: 12.5 mg/kg/injection, schedule: Q01DX009 (ip), vehicle: Klucel (hydroxypropylcellulose) (HPC)): 98 % of control | T/C (dose: 25.0 mg/kg/injection, schedule: Q01DX009 (ip), vehicle: Klucel (hydroxypropylcellulose) (HPC)): 98 % of control | T/C [8]: 86 % of control

C/C=C/C=C1/OC(C)=C(C(C)=O)C1=O
T/C (dose: 12.5 mg/kg/injection, schedule: Q01DX009 (ip), vehicle: saline + Tween-80 + alcohol): 117 % of control | T/C (dose: 25.0 mg/kg/injection, schedule: Q01DX009 (ip), vehicle: saline + Tween-80 + alcohol): 114 % of control | T/C (dose: 100.0 mg/kg/injection, schedule: Q01DX009 (ip), vehicle: saline + Tween-80 + alcohol): 112 % of control | T/C [2]: 124 % of control | T/C (dose: 200.0 mg/kg/injection, schedule: Q01DX009 (ip), vehicle: saline + Tween-80 + alcohol): 123 % of control

O=C1c2cccnc2C(=O)N1CCO
T/C (dose: 50.0 mg/kg/injection, schedule: Q01DX005 (ip), vehicle: saline): 95 % of control | T/C (dose: 100.0 mg/kg/injection, schedule: Q01DX005 (ip), vehicle: saline): 100 % of control | T/C (dose: 200.0 mg/kg/injection, schedule: Q01DX005 (ip), vehicle: saline): 101 % of control

COC(=O)C1CCC(c2ccccc2)(c2ccccc2)C1=O.COC(=O)C1CCC(c2ccccc2)(c2ccccc2)C1=O.[Cu] (centres undefined)
T/C [9]: 100 % of control | T/C [10]: 100 % of control | T/C [11]: 102 % of control

O=NNc1ccc(Sc2ccccc2)cn1
T/C (dose: 6.25 mg/kg/injection, schedule: Q01DX009 (ip), vehicle: saline): 153 % of control | T/C (dose: 12.5 mg/kg/injection, schedule: Q01DX009 (ip), vehicle: saline): 88 % of control and 90 % of control
